Assays:
S. aureus ATCC 25923 = type: cell-based, Staphylococcus aureus; settings: for MIC S. aureus ATCC 25923, in parentheses: numbers in parentheses are micromolar concentrations, unit of the source corrected
Source text: (§1) Thirty (30) Pneumococcal clinical isolates were obtained from University of Malaya Medical Centre (UMMC). For broad-spectrum activity of AMPs, E. coli ATCC 25922, Staphylococcus aureus ATCC 25923, P. aeruginosa ATCC 15442, Acinetobacter baumanii ATCC 15308, and one clinical isolate of each methicillin resistant S. aureus (MRSA), […], citrobacter spp., and K. pneumoniae were used in this study.
(§2) The minimum inhibitory concentration (MIC) of the peptides against 30 pneumococcal isolates was determined by broth microdilution protocol as indicated by the CLSI guidelines (Clinical and Laboratory Standards Institute). Briefly, bacterial strains were grown for 18–24 hr at 37°C under 5% CO2. Direct suspension of the colonies were made in cationically-adjusted Müeller-Hinton broth (CAMHB) and adjusted to OD 625 0.08–0.1 which corresponds to 1 ~ 2 x10^8 CFU/ml followed by serial ten-fold dilutions to give 1x10^6 CFU/ml. 50μl of bacterial suspension were added to 96-well round bottom microtiter plates containing equal volume of peptides at different concentrations (1.95, 3.90, 7.81, 15.62, 31.25, 62.5, 125, 250μg/ml) and the 96-well plates were incubated for 20-24hr at 37°C in the presence of 5% CO2.

Streptococcus pneumoniae = test: Time killing assay; type: cell-based; settings: 1×MIC; for time to completely kill 10^6 CFU/ml of S. pneumoniae / time to eradicate susceptible pneumococcal isolate: MHB, 37°C, triplicate; for time to completely kill 10^6 CFU/ml of S. pneumoniae: sampled every 30 min to 240 min; for time to totally eliminate resistant strain: failed up to 240 min of treatment
Description: The bactericidal activities of peptides were performed as described previously. […] 10μl of bacterial suspensions were removed at various time intervals (30, 60, 90, 120, 150, 180, 210, and 240 min), serially diluted in PBS and plated onto Columbia agar with 5% sheep blood for 20-24hr at 37°C in the presence of 5% CO2 to obtain viable colonies. Erythromycin and ceftriaxone were used as positive control and the assay was performed in triplicate.

K. pneumoniae = type: cell-based; settings: numbers in parentheses are micromolar concentrations
Source text: as §1, §2

P. aeruginosa ATCC 15442 = type: cell-based; settings: numbers in parentheses are micromolar concentrations; unit of the source corrected
Source text: as §1, §2

[1] = tested on: Methicillin resistant S. aureus (MRSA); type: cell-based; settings: numbers in parentheses are micromolar concentrations; unit of the source corrected
Source text: as §1, §2

E. coli ATCC 25922 = type: cell-based; settings: numbers in parentheses are micromolar concentrations; unit of the source corrected
Source text: as §1, §2

citrobacter spp = type: cell-based; settings: numbers in parentheses are micromolar concentrations
Source text: as §1, §2

[2] = tested on: Acinetobacter baumanii ATCC 15308; type: cell-based; settings: numbers in parentheses are micromolar concentrations
Source text: as §1, §2

Enterococcus cloacae = type: cell-based; settings: numbers in parentheses are micromolar concentrations
Source text: as §1, §2

[3] = tested on: NL-20 normal lung cell line; type: cell-based, human
Description: (§3) CellTiter 96 AQueous Non-Radioactive Cell Proliferation assay (Promega, USA) was used to evaluate the cytotoxic effects of peptides. WRL-68 (ATCC CL-48) and NL-20 (ATCC CRL2503) cell lines were purchased from American Type Culture Collection (ATCC, USA). The cell lines were grown in Dulbecco's modified Eagle's medium (DMEM) and Ham’s F-12 medium, respectively. Cells were supplemented with 10% (v/v) fetal bovine serum (FBS) in T75 flasks and incubated at 37°C in the presence of 5% CO2. Cells were seeded into 96-well plates at a density of 1×10^4 and 3×10^4 cells per well, respectively. Peptides were added to the wells at different concentrations (1.95, 3.90, 7.81, 15.62, 31.25, 62.5, 125, and 250μg) and plates were incubated at 37°C under 5% CO2 for 24, 48, and 72 hrs. Medium with and without cells was used as positive and negative controls, respectively. After incubation, 20μl of the reagent were added to each well and incubated for 1 hr at 37°C under 5% CO2. Metabolically active cells convert the yellow MTS to purple formazan, allowing for monitoring of the reaction. The absorbance was monitored at 490 nm using GloMax Multi Detection System (Promega, USA). The percentage of viable cells was calculated according to the following formula: 100 (AT-AB/AC-AB), where AT and AC are the absorbance of treated and control cells (100% survival). AB is the absorbance of medium alone. The assay was done in triplicate.

[4] = tested on: WRL-68 normal liver cell line; type: cell-based, human
Description: as §3

[5] = tested on: S. pneumoniae (30 clinical isolates); type: cell-based, Streptococcus pneumoniae; settings: for MIC S. pneumoniae (30 clinical isolates): broth microdilution, CAMHB, 20-24hr, 37°C, 5% CO2, lowest concentration that completely inhibits growth; for MIC S. pneumoniae (30 clinical isolates), in parentheses: numbers in parentheses are micromolar concentrations, unit of the source corrected
Source text: as §1, §2

Compound | MIC S. aureus ATCC 25923, in parentheses (S. aureus ATCC 25923) | time to completely kill 10^6 CFU/ml of S. pneumoniae (Streptococcus pneumoniae) | MIC K. pneumoniae, in parentheses (K. pneumoniae) | MIC P. aeruginosa ATCC 15442, in parentheses (P. aeruginosa ATCC 15442) | MIC MRSA, in parentheses [1] | MIC E. coli ATCC 25922, in parentheses (E. coli ATCC 25922) | MIC citrobacter spp, in parentheses (citrobacter spp) | MIC Acinetobacter baumanii ATCC 15308, in parentheses [2] | MIC Enterococcus cloacae, in parentheses (Enterococcus cloacae) | concentration at which toxic, NL-20 [3] | concentration at which toxic, WRL-68 [4] | MIC S. pneumoniae (30 clinical isolates) [5] | MIC S. pneumoniae (30 clinical isolates), in parentheses [5] | MIC S. aureus ATCC 25923 (S. aureus ATCC 25923; broth microdilution) | time to totally eliminate resistant strain (Streptococcus pneumoniae) | time to eradicate susceptible pneumococcal isolate (Streptococcus pneumoniae)
FLGGLIKKWPWWPWRR-NH2 [RN7-IN9, hybrid peptide of ranalexin and indolicidin] | 7.81 µg/mL | ≤ 150 min | >250 (>117) micromolar | 31.2 µg/mL | 7.81 µg/mL | 7.81 µg/mL | >250 (>117) micromolar | 31.25 (14.7) micromolar | >250 (>117) micromolar | ≥ 125 µg/mL | ≥ 62.5 µg/mL | 7.81 to 15.62 µg/mL | 7.81 to 15.6 µg/mL | – | – | –
RRPWRWPRWPWRR-NH2 [IN3, indolicidin analog] | 31.2 µg/mL | 150 min | >250 (>125) micromolar | 31.2 µg/mL | 62.5 µg/mL | 31.2 µg/mL | >250 (>125) micromolar | >250 (>125) micromolar | >250 (>125) micromolar | – | – | – | 62.5 µg/mL | – | – | –
RLPWRWPRRPWRR-NH2 [IN4, indolicidin analog] | – | – | >250 (>130.4) micromolar | 125 µg/mL | 250 µg/mL | 250 µg/mL | >250 (>130.4) micromolar | >250 (>130.4) micromolar | >250 (>130.4) micromolar | – | – | > 250 µg/mL | 250 µg/mL | 125 µg/mL | – | –
CC[C@H]1OC(=O)[C@H](C)[C@@H](O[C@H]2C[C@@](C)(OC)[C@@H](O)[C@H](C)O2)[C@H](C)[C@@H](O[C@@H]2O[C@H](C)C[C@H](N(C)C)[C@H]2O)[C@](C)(O)C[C@@H](C)C(=O)[C@H](C)[C@@H](O)[C@]1(C)O [erythromycin, reference compound] | – | – | – | – | – | – | – | – | – | – | – | – | – | – | > 240 min | 120 min
RRPWRWPWWPWRR-NH2 [IN2, indolicidin analog] | 31.2 µg/mL | 210 min | >250 (>123) micromolar | 31.2 µg/mL | 31.2 µg/mL | 31.2 µg/mL | >250 (>123) micromolar | >250 (>123) micromolar | >250 (>123) micromolar | – | – | 31.25 to 62.5 µg/mL | 31.2 to 62.5 µg/mL | – | – | –
CO/N=C(\C(=O)N[C@@H]1C(=O)N2C(C(=O)O)=C(CSc3nc(=O)c(=O)[nH]n3C)CS[C@H]12)c1csc(N)n1 [ceftriaxone, reference compound] | – | – | – | – | – | – | – | – | – | – | – | – | – | – | > 240 min | 150 min
